Source: article PMC8652888, “Angiogenesis, Anti-Tumor, and Anti-Metastatic Activity of Novel α-Substituted Hetero-Aromatic Chalcone Hybrids as Inhibitors of Microtubule Polymerization” (Frontiers in Chemistry, 2021)
Where “and” joins values, the source holds several entries; their conditions need not be identical. Equal values may be shown once. Read-outs that look alike come from different tables or passages of the source.

Key:
[1] = system: taxol-resistant MCF7 cells (MCF7/Tax); assay: Growth inhibition of taxol-resistant cells; type: cell-based, human
[2] = system: MCF-7 cells implanted in zebrafish embryos; assay: Zebrafish xenograft assay; type: in vivo; conditions: 2.5, 5, 7.5 μΜ, 72 h
Method: To examine the in vivo anti-tumor and anti-metastasis potency of 7m, we implanted Cell-Tracker Red CMTPX-labeled MCF-7 cells into the yolk of Tg (flk: EGFP) 48 hpf embryos, and different concentrations of 7m (2.5, 5, 7.5 μΜ) were added. The intensity of the red fluorescence is proportional to the size of the xenograft tumor. After 72 h, the effects of 7m on the tumor mass development and cancer cell metastasis were assessed by fluorescence microscopy. […] Without drug treatment, MCF-7 cells disseminated and migrated widely away from the original area, and some tumor cells even migrated into the blood vessels of the zebrafish tail at 72 hpf.
The tumor cells MCF-7 were labeled with Red CMTPX, and then the labeled tumor cells were digested and resuspended. A hundred labeled tumor cells per 1 nl were injected into the zebrafish embryos developed for 48 h. The zebrafish injected with tumor cells were incubated in an incubator at 28.5°C for about 1 h under the action of different concentrations of 7m and then were transferred to an incubator at 35°C.

[3] = system: U937; assay: Antiproliferative activity, CCK-8 assay; type: cell-based
Procedure, shortened: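 U937 cells in log phase seeded at 8,000/well with compound-containing medium and incubated 72 h at 37 °C, 5% CO2. Proliferation read by CCK-8 dye after a further 3–4 h incubation, against blank-medium wells.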

[4] = system: HepG2; assay: Antiproliferative activity, SRB assay; type: cell-based, human
Procedure, shortened: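 Cells seeded at 3 × 10^3–4 × 10^3 per well, grown 24 h, then exposed to compounds at various concentrations for 72 h at 37 °C. TCA-fixed cells stained with 0.4% SRB; bound dye dissolved in 10 mM Tris base and OD read at 560 nm.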

[5] = system: HUVECs; assay: Tube formation assay; type: cell-based, human; conditions: 1, 5, 25 μM, 6–8 h
Method: HUVECs (human umbilical vein endothelial cells) grown on Matrigel were commonly used as a tube formation model and also a widely studied human endothelial cell type in angiogenesis, for their ability to alter their shape to resemble capillaries ([Aranda and Owen, 2009]). […] We therefore examined the effects of 7m on HUVEC tube formation to evaluate its potential effect on angiogenesis.
The HUVECs were seeded in 96-well plates and cultured for 24 h, and then incubated with 1, 5, and 25 μM 7m. The EC Matrigel matrix was thawed overnight at 4°C. The HUVECs, suspended in F12K, were seeded in a 96-well culture plate at a cell density of 10,000 cells/well after 45 min of Matrigel polymerization at 37°C. Then they were treated with different concentrations of 7m or carrier at 37°C for 6–8 h. Then the morphological changes of the formed cells and tubes under an inverted microscope were observed, and pictures were taken.

[6] = system: MCF-7 cells; assay: Transwell Matrigel invasion assay; type: cell-based, human
Method: (§1) In order to evaluate whether 7m could suppress migration and invasion, the MCF-7 cell culture was performed by wound healing and Transwell Matrigel assay, respectively.
(§2) The upper chamber of the Transwell chamber was filled with cells resuspended in serum-free medium, 6 × 10^4 cells per well, 100 μl per well, and the lower chamber was added with 10% FBS-containing medium prepared with different concentrations of 7m. The cells were allowed to migrate for 48 h at 37°C in an atmosphere of 5% CO2. Then the migration of cells to the underside of the filter was determined by crystal violet staining.

[7] = system: MCF-7, U937, HepG2 and MGC-803 cells; assay: Antiproliferative activity, cancer cell panel (text summaries); type: cell-based, human; conditions: U937, MCF7, HepG2; read-out: IC50 against three cancer cells
Method: The synthesized compounds were first evaluated for their cytotoxic effect on MCF-7 (human breast adenocarcinoma), U937 (histiocytic lymphoma cancer), HepG2 (human liver cancer) cells, and MGC-803 (human gastric cancer) using the SRB and CCK-8 assay. As reference compounds CA-4 and colchicine were included.
The primary tumor cells were purchased from a professional biomedical company. First, the primary tumor cells were incubated in a cell culture incubator at 37°C and 5% CO2. After the cell fusion reached 85%–95%, subculture was performed, and the tumor cells obtained at this time were used for subsequent related experiments. The CCK-8 method was used to inhibit the proliferation of U937 tumor cells, and the SRB method was used to inhibit the proliferation of MCF7 and HepG2 tumor cells.
Cells were distributed into 96-well plates with a density of 3 × 10^3–4 × 10^3 cells per well and incubated for 24 h in a 5% CO2 incubator at 37°C, followed by treatment with study compounds at different concentrations at 37°C for 72 h. One hundred microliters of 10% (w/v) trichloroacetic acid was added to each well, fixed at 4°C for 30 min, and dried at 65°C. Then 100 μl of 0.4% SRB was added to each well and stained on a shaker for 20 min at room temperature. The excess dye solution was washed with newly prepared 1% glacial acetic acid and dried at 65°C. One hundred fifty microliters of 10 mM unbuffered Trisbase was added to each well of the plate and shaken for 5 min to dissolve the dye. The microplate reader measured the optical density (OD) at a wavelength of 560 nm.
The cells in the logarithmic growth phase were seeded in a 96-well plate at 8,000/well, and the drug-containing medium and cell suspension were added to the well. Three wells were added with the blank medium as the blank group. The 96-well plate was incubated for 72 h in a 37°C, 5% CO2 incubator. The 10 μl of CCK-8 dye solution was added to each well, and the incubation continued for 3–4 h.

[8] = system: normal liver LO2 cells; assay: Growth inhibition of normal cells; type: cell-based, human
[9] = system: MCF-7 cells; assay: Wound healing assay; type: cell-based, human; conditions: 48 h
Method: as §1
MCF-7 cells and HUVECs cells were grown in 24-well plates at a density of 1 × 10^6 cells per well for 24 h. Scratches were made in confluent monolayers by […] pipette tips. The media containing different concentrations of 7m were added to the Petri dishes. […] The migration distance of cells migrated to the wound area was measured manually.

[10] = system: HUVECs; assay: Transwell cell invasion experiment; type: cell-based, human; conditions: 1, 5, 25 μΜ
Method: A wound healing assay was, thus, performed to evaluate the capacity of 7m to inhibit cell motility. […] Then the invasion inhibitory activities of 7m were further detected using Transwell assay with HUVECs cells treated with 0, 1, 5, and 25 μΜ of 7m. In this assay, […] were seeded into upper chambers which were pre-coated with Matrigel matrix in order to evaluate the cellular invasion.
as §2

3-(benzofuran-6-yl)-2-methyl-1-(3,4,5-trimethoxyphenyl)prop-2-en-1-one [Compound 7m]
Resistant fold ([1]; (IC50 MCF7/Tax)/(IC50 MCF7)): 1.2 | IC50 ([1]; three single determinations, read-out: MCF-7/Taxol (raw data of table 3, IC50)): 242 nM and 181 nM and 216 nM | IC50 ([1]; triplicate, read-out: IC50 ± SD, MCF7/Tax): 213 ± 26 nM | fluorescence intensity and tumor size of MCF-7 cells vs vehicle [2]: reduced the fluorescence intensity and tumor size | migration number of implanted MCF-7 cells [2]: notably reduced in a dose-dependent manner | IC50 ([3]; 72 h, triplicate, mean ± SD, read-out: IC50 ± SD, U937): 82 ± 2 nM | IC50 ([3]; supplement raw data of table 2, read-out: IC50(U937)): 81.6 nM | IC50 ([4]; 72 h, triplicate, mean ± SD, read-out: IC50 ± SD, HepG2): 70 ± 1 nM | IC50 ([4]; supplement raw data of table 2, read-out: IC50(Hepg2)): 70.5 nM | width and length of tubule-like network formation [5]: reduced in a concentration-dependent manner | MCF-7 cells invasion [6]: hinder the MCF-7 cells invasion in a dose-dependent manner | IC50 [7]: 70 to 183 nM | Selectivity ratio ([8]; (IC50 human normal cells LO2)/(IC50 MCF7)): 4.9 | IC50 ([8]; three single determinations, read-out: L02 (raw data of table 3, IC50)): 885 nM and 871 nM and 914 nM | IC50 ([8]; triplicate, read-out: IC50 ± SD, LO2): 890 ± 14 nM | wound healing of MCF-7 cells (migration) [9]: significantly inhibited the wound healing | invasion ability of cells [10]: invasion ability of cells gradually weakened
